The record followed here is ChEMBL document CHEMBL2010739, “Antiproliferative activity of trans-avicennol from Zanthoxylum chiloperone var. angustifolium against human cancer stem cells” (J Nat Prod, 2012).

The target in data set [1] is Indoleamine 2,3-dioxygenase 1 (Homo sapiens, UniProt P14902). The data set is described as follows: Competitive inhibition of human indoleamine 2,3-dioxygenase assessed as conversion of N-formylkynurenine to kynurenine after 2 hrs by spectrophotometrical analysis.
In data set [2] the test system is TG1. Nature of the data set: Induction of Erk phosphorylation in human TG1 cells at 100 uM after 30 mins by Western blot analysis. It is filed as cell-based.
Data set [3] can be described thus: Antiproliferative activity against human NSC-24 cells at 34.2 ug/ml to 100 uM by WST-1 assay. It is filed as cell-based. For orientation: Tetrazolium dyes change colour on reduction, which living cells bring about.
Data set [4] relates to NSC-24. The data set is described as follows: Inhibition of Erk phosphorylation in human NSC-24 cells at 100 uM after 30 mins by Western blot analysis. It is filed as cell-based. For orientation: A western blot detects proteins with antibodies after separation by electrophoresis.
The nature of data set [5]: Antiproliferative activity against human TG10 cells at 34.2 ug/ml by WST-1 assay. It is filed as functional.
A short description of data set [6]: Antiproliferative activity against human TG1 cells at 34.2 ug/ml by WST-1 assay. The format is functional.

The source made the active and inactive calls. The calls are words filed in the database; no cut-off is given here.

Indoleamine 2,3-dioxygenase 1, sequence (P14902 whole entry): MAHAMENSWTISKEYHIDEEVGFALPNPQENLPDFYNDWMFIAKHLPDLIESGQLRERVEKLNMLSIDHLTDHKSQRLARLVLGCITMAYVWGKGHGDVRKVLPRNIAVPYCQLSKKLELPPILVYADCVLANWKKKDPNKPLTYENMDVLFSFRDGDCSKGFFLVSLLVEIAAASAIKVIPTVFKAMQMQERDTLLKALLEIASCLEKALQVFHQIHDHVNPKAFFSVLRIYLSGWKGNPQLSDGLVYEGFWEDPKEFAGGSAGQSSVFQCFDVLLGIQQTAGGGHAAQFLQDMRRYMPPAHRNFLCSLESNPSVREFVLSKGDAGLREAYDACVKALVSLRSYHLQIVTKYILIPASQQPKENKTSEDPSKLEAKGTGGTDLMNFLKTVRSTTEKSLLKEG

With `COc1c2c(c3ccc(=O)oc3c1/C=C/C(C)(C)O)OC(C)(C)C=C2` [AVICENNOL], the inhibitory constant (Ki) (commonly a measure of affinity in units of concentration, obtained from inhibition or displacement) in data set [1] is 635 µM. In addition, the outcome in data set [2] was Active. Also, the Activity entry in data set [3] is reported as “Non-toxic”; in data set [5], 40%; in data set [6] it was 35%. Moreover, the inhibition result in data set [4] was “Active”.
